Entries after “also recorded” stand apart in the source; their conditions may differ. Square brackets hold non-standard residues; d marks the D form. Peptide text beside a SMILES is read from it. β3hW = N[C@H](CC(=O)O)Cc1c[nH]c2ccccc12; β3hR = N=C(N)NCCC[C@H](N)CC(=O)O; β3hE = N[C@@H](CCC(=O)O)CC(=O)O; β3hQ = NC(=O)CC[C@H](N)CC(=O)O; β3hD = NC(CC(=O)O)CC(=O)O; β3hA = C[C@H](N)CC(=O)O
What was measured:
[1] = biological target: Mcl-1 (Homo sapiens, UniProt Q07820, A193S/E173D/K208R/M199L/R201E/S202A/S206G/T196S/T205A); assay: Solution competition SPR; assay type: binding, human/mouse chimeric; details: for affinity for Mcl-1: SPR, in words
[2] = biological target: T1, Bcl-xL (Homo sapiens, UniProt Q07817); assay: Solution competition SPR; assay type: binding; details: for affinity for Bcl-xL: SPR, in words
[3] = ref [14]; cited from earlier work
[4] = biological target: T1, Bcl-xL; details: preliminary studies; ref [14]; cited from earlier work
[5] = biological target: Bcl-2 (Homo sapiens, UniProt P10415); assay: Solution competition SPR; assay type: binding
[6] = system: pro-survival proteins; details: ref [37]; cited from earlier work
[7] = biological target: T2, Bcl-w (Homo sapiens, UniProt Q92843, A128E/C29S); assay: Solution competition SPR; assay type: binding
T2 sequence (Q92843 1-164 C29S/A128E limits assumed): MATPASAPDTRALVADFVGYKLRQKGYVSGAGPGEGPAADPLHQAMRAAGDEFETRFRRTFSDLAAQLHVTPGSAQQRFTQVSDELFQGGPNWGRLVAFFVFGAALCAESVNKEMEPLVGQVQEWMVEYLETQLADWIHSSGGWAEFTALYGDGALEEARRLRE

T1 sequence (Q07817 1-209 limits assumed): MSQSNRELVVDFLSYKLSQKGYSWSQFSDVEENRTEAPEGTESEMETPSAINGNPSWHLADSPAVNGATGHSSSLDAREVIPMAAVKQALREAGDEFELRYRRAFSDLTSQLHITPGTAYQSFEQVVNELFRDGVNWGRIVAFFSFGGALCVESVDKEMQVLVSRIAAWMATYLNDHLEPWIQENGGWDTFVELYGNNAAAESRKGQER
Chain of Mcl-1 (Q07820 171-327 E173D/A193S/T196S/M199L/R201E/S202A/T205A/S206G/K208R limits assumed): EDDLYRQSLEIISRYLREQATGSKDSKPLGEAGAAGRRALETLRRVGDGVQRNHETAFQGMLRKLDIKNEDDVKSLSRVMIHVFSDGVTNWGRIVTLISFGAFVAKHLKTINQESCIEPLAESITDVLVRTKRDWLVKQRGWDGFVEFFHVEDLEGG
Chain of Bcl-2 (P10415 1-217 limits assumed, species assumed): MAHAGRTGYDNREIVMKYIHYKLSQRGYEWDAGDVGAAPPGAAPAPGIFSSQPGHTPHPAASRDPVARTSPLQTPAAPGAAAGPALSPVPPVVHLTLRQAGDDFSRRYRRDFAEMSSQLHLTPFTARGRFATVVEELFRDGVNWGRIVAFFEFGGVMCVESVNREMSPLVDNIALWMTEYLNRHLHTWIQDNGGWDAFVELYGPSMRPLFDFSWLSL

Compound: CC[C@H](C)[C@H](NC(=O)C[C@H](CCC(=O)O)NC(=O)[C@H](CCCNC(=N)N)NC(=O)[C@H](C)NC(=O)C[C@H](Cc1c[nH]c2ccccc12)NC(C)=O)C(=O)NCC(=O)N[C@@H](C)C(=O)N[C@@H](CCC(N)=O)CC(=O)N[C@@H](CC(C)C)C(=O)N[C@@H](CCCNC(=N)N)C(=O)N[C@@H](CCCNC(=N)N)CC(=O)N[C@@H](CCSC)C(=O)N[C@@H](C)C(=O)N[C@@H](CC(=O)O)C(=O)N[C@@H](CC(=O)O)CC(=O)N[C@@H](CC(C)C)C(=O)N[C@@H](CC(N)=O)C(=O)N[C@@H](C)CC(=O)N[C@@H](CCC(N)=O)C(=O)N[C@@H](Cc1ccc(O)cc1)C(=O)N[C@@H](CCC(=O)O)C(N)=O [α/β-peptide 3] (Ac-[β3hW]AR[β3hE]IGA[β3hQ]LR[β3hR]MAD[β3hD]LN[β3hA]QYE-NH2; N-terminus assumed)
- affinity for Mcl-1 [1]: low affinity
- affinity for Bcl-xL [2]: high affinity

Compound: CC[C@H](C)[C@H](NC(=O)C[C@H](CCC(=O)O)NC(=O)[C@H](CCCNC(=N)N)NC(=O)[C@H](C)NC(=O)C[C@H](Cc1c[nH]c2ccccc12)NC(=O)[C@H](CCC(N)=O)NC(=O)[C@H](CCC(=O)O)NC(=O)[C@H](CCC(=O)O)NC(C)=O)C(=O)NCC(=O)N[C@@H](C)C(=O)N[C@@H](CCC(N)=O)CC(=O)N[C@@H](CC(C)C)C(=O)N[C@@H](CCCNC(=N)N)C(=O)N[C@@H](CCCNC(=N)N)CC(=O)N[C@@H](CCSC)C(=O)N[C@@H](C)C(=O)N[C@@H](CC(=O)O)C(=O)N[C@@H](CC(=O)O)CC(=O)N[C@@H](CC(C)C)C(=O)N[C@@H](CC(N)=O)C(=O)N[C@@H](C)CC(=O)N[C@@H](CCC(N)=O)C(=O)N[C@@H](Cc1ccc(O)cc1)C(=O)N[C@@H](CCC(=O)O)C(=O)N[C@@H](CCCNC(=N)N)CC(=O)N[C@@H](CCCNC(=N)N)C(N)=O [α/β-peptide 2]
- resistance to proteolytic degradation [3]: significant resistance to proteolytic degradation
- affinity for Mcl-1 [1]: does not bind tightly to Mcl-1; also recorded: low affinity; also recorded: relatively weak binding
- affinity for Bcl-xL [2]: strong binding; also recorded: high affinity
- binding to Bcl-xL [4]: bound tightly

Compound: CC[C@H](C)[C@H](NC(=O)[C@H](CCC(=O)O)NC(=O)[C@H](CCCNC(=N)N)NC(=O)[C@H](C)NC(=O)[C@H](Cc1c[nH]c2ccccc12)NC(=O)[C@H](CCC(N)=O)NC(=O)[C@H](CCC(=O)O)NC(=O)[C@H](CCC(=O)O)NC(C)=O)C(=O)NCC(=O)N[C@@H](C)C(=O)N[C@@H](CCC(N)=O)C(=O)N[C@@H](CC(C)C)C(=O)N[C@@H](CCCNC(=N)N)C(=O)N[C@@H](CCCNC(=N)N)C(=O)N[C@@H](CCSC)C(=O)N[C@@H](C)C(=O)N[C@@H](CC(=O)O)C(=O)N[C@@H](CC(=O)O)C(=O)N[C@@H](CC(C)C)C(=O)N[C@@H](CC(N)=O)C(=O)N[C@@H](C)C(=O)N[C@@H](CCC(N)=O)C(=O)N[C@@H](Cc1ccc(O)cc1)C(=O)N[C@@H](CCC(=O)O)C(=O)N[C@@H](CCCNC(=N)N)C(=O)N[C@@H](CCCNC(=N)N)C(N)=O [α-peptide 1]
- IC50 [5]: 5 nM
- IC50 [1]: 10 nM
- binding to all pro-survival proteins [6]: promiscuous binder capable of engaging all pro-survival proteins with high affinity
- IC50 [2]: 18 nM
- IC50 [7]: 13 nM

Source: article PMC3263372 (Chembiochem, 2011)
